This note sets out measurements from patent US20230033224A1, “CICLESONIDE FOR AMELIORATING QUALITY OF LIFE (QOL) IN EQUINES” (Boehringer Ingelheim Vetmedica GmbH, priority 2020, published 2023).

For the experiment, the system named is client-owned horses. In words: Owner assessment of change in quality of life (QOL) in a randomized, double-blinded, placebo-controlled clinical study. It is filed as in vivo, horse. The source says: The amelioration of the QOL in equines can be measured by an assessment, which can be performed for example by the owner or the veterinarian or by an animal care taker or by any other person, preferably by the owner. The owners of the horses are asked to assess the quality of life of their horses over a certain period of time, e.g. several days, such as 10, 14 or 21 days, compared to a reference time point, e.g. day 0. For assessment of QOL the owner is asked to consider certain QOL parameters such as attitude, energy level, human interactions, general behavior using a rating scheme. This assessment preferably relates to a certain period of time such as for example the last 24 hours in comparison to a previous point in time for example day 0. One possible rating scheme is to ask whether QOL has improved, stayed the same or worsened compared to day 0.
The study is conducted as a multicenter prospective, randomized, double-blinded, placebo-controlled clinical study with parallel group design according to Good Clinical Practice (GCP) guidelines with client-owned horses.
Horses are examined before (Day 0) and at the end of treatment with the study drug (Day 10±1) by the study investigators. Physical examination, efficacy and QOL assessment, as well as blood sample collection is performed during the visits. The owners of included horses are also contacted by telephone on Day 5. […]

The structures appear in SMILES notation.

For `CC(C)C(=O)OCC(=O)[C@@]12O[C@H](C3CCCCC3)OC1CC1C3CCC4=CC(=O)C=C[C@]4(C)C3[C@@H](O)C[C@@]12C` (stereo partly drawn) [ciclosenide, (1 ip,16a)-16,17-[[(R)-Cyclohexylmethylene]bis(oxy)]-11-hydroxy-21-(2-methyl-1-oxopropoxy)pregna-1,4-diene-3,20-dione], the “percentage of owners acknowledging an improvement in their horse's quality of life compared to Day 0” value (after 10(±1) days of treatment, 8 actuations twice daily for 5 days, then 12 actuations once daily for 5 days) is listed as 69.33%. Further, the “percentage of owners reporting that the quality of life of their horse improved compared to Day 0” value (after five days of treatment, inhaled via EquiHaler, 8 actuations (343 μg each) twice daily) worked out at 60.19%.
